System in one series: not listed separately
Description: Precipitate formation in the DMSO solvent used. The following applies: DMSO solvent used in testing. The format is physicochemical.
For `Cn1c(=O)c(-c2ccccc2Cl)cc2cnc(NC3C4CN(S(=O)(=O)c5ccccc5)CC43)nc21` (stereo not drawn) [Compound No. 41, 2-(3-Benzenesulphonyl-3-aza-bicyclo[3.1.0]hex-6-ylamino)-6-(2-chlorophenyl)-8-methyl-8H-pyrido[2,3-d]pyrimidin-7-one], the “formed a precipitate in the DMSO solvent used” value is “formed a precipitate in the DMSO solvent used”. The same measure, in the same setting: under `O=c1c(-c2ccccc2Cl)cc2cnc(NC3C4CN(S(=O)(=O)c5ccc(C(F)(F)F)cc5)CC43)nc2n1C1CC1` (stereo not drawn) [Compound No. 37, 6-(2-Chlorophenyl)-8-cyclopropyl-2-[3-(4-trifluoromethylbenzenesulfonyl)-3-aza-bicyclo[3.1.0]hex-6-ylamino]-8H-pyrido[2,3-d]pyrimidin-7-one] stands “formed a precipitate in the DMSO solvent used”.

Regarding `Cc1ccc(S(=O)(=O)N2CC3C(C2)C3Nc2ncc3cc(-c4ccccc4Cl)c(=O)n(C)c3n2)cc1` (stereo not drawn) [Compound No. 43, 6-(2-Chlorophenyl)-8-methyl-2-[3-(toluene-4-sulfonyl)-3-aza-bicyclo[3.1.0]hex-6-ylamino]-8H-pyrido[2,3-d]pyrimidin-7-one], the “formed a precipitate in the DMSO solvent used” value is listed as “formed a precipitate in the DMSO solvent used”. Still for that read-out and setting: under `Cc1ccc(S(=O)(=O)N2CC3C(C2)C3Nc2ncc3cc(-c4ccccc4Cl)c(=O)n(C4CC4)c3n2)cc1` (stereo not drawn) [Compound No. 21, 6-(2-Chlorophenyl)-8-cyclopropyl-2-[3-(toluene-4-sulphonyl)-3-aza-bicyclo[3.1.0]hex-6-ylamino]-8H-pyrido[2,3-d]pyrimidin-7-one] stands “formed a precipitate in the DMSO solvent used”; under `CC(C)(C)CC(C)(C)NC(=O)N1CC2C(C1)C2Nc1ncc2cc(-c3ccccc3Cl)c(=O)n(C3CC3)c2n1` (stereo not drawn) [Compound No. 24], “formed a precipitate in the DMSO solvent used”; under `O=c1[nH]c2nc(NC3C4COCC3CN(Cc3ccccc3)C4)ncc2cc1-c1ccccc1Cl` (stereo not drawn) [Compound No. 61, 2-(7-Benzyl-3-oxa-7-aza-bicyclo[3.3.1]non-9-ylamino)-6-(2-chlorophenyl)-8H-pyrido[2,3-d]pyrimidin-7-one], “formed a precipitate in the DMSO solvent used”.

A further series concerns TNF-α release from peripheral blood mononuclear cells. Briefly: Cell based assay for TNF-α release, LPS stimulation of human PBMNC's (ELISA). The following applies: PBMC, LPS 20 ng/ml, overnight, span over the group, units given in the value. The procedure: Human whole blood was collected in vacutainer tubes containing EDTA as an anti coagulant. A blood sample (7 ml) was carefully layered over 5 ml PMN Cell Isolation Medium (Robbins Scientific) in a 15 ml round bottom centrifuge tubes. The sample was centrifuged at 450-500×g for 30-35 minutes in a swing-out rotor at room temperature. After centrifugation the top band of cells were removed and washed 3 times with PBS w/o calcium or magnesium. The cells were centrifuged at 400×g for 10 minutes at room temperature. The cells were resuspended in Macrophage Serum Free Medium (Gibco BRL) at concentration of 2 million cells/ml.
PBM cells (0.1 ml; 2 million/ml) were co-incubated with 0.1 ml of compound (10-0.41 μM, final concentration) for 1 hour in flat bottom 96 well microtiter plate. Compounds were dissolved in DMSO initially and diluted in TCM for a final concentration of 0.1% DMSO. LPS (Cal biochem, 20 ng/ml, final concentration) was then added at volume of 0.010 ml. Cultures were incubated overnight at 37° C.). Supernatant were then removed and tested by ELISA for TNF-α release. Viability was analyzed using MTT. After 0.1 ml supernatant was collected, 0.1 ml of 0.25 mg/ml of MTT was added to remaining 0.1 ml of cells. The cells were incubated at 37° C. for 2-4 hours, then the O.D was measured at 490-650 nm n.
The TNF-α levels released in the culture medium were quantitated by ELISA. Inhibitory potency was expressed as IC50.
On the technique in general: ELISA stands for enzyme-linked immunosorbent assay.
As a reminder, the IC50 is the point on the concentration scale where inhibition reaches its midpoint. Lower therefore signals inhibition by little substance. In turn, `O=c1c(-c2ccccc2Cl)cc2cnc(NC3C4CN(Cc5ccccc5)CC43)nc2n1C1CC1` (stereo not drawn) [Compound No. 17, 2-(3-Benzyl-3-aza-bicyclo[3.1.0]hex-6-ylamino)-6-(2-chlorophenyl)-8-cyclopropyl-8H-pyrido[2,3-d]pyrimidin-7-one] came in with an IC50 of 12 to 2300 nM.

The compound `O=c1c(-c2ccccc2Cl)cc2cnc(NC3C4COCC3CN(Cc3ccccc3)C4)nc2n1C1CC1` (stereo not drawn) [Compound No. 33, 2-(7-Benzyl-3-oxa-7-aza-bicyclo[3.3.1]non-9-ylamino)-6-(2-chlorophenyl)-8-cyclopropyl-8H-pyrido[2,3-d]pyrimidin-7-one] yielded an IC50 of 12 to 2300 nM.

For `O=C(OCc1ccccc1)N1CC2C(C1)C2Nc1ncc2cc(-c3ccccc3Cl)c(=O)n(-c3ccc(F)cc3)c2n1` (stereo not drawn) [Compound No. 12, 6-[6-(2-Chlorophenyl)-8-(4-fluorophenyl)-7-oxo-7,8-dihydro-pyrido[2,3-d]pyrimidin-2-ylamino]-3-aza-bicyclo[3.1.0]hexane-3-carboxylic acid benzyl ester], the half-inhibitory concentration (IC50) lay in the range of 12 to 2300 nM. Same read-out and setting: under `N#CCn1c(=O)c(-c2ccccc2Cl)cc2cnc(NC3C4CN(C(=O)Nc5ccc(F)cc5)CC43)nc21` (stereo not drawn) [Compound No. 57, 6-[6-(2-Chlorophenyl)-8-cyanomethyl-7-oxo-7,8-dihydro-pyrido[2,3-d]pyrimidin-2-ylamino]-3-aza-bicyclo[3.1.0]hexane-3-carboxylic acid (4-fluorophenyl)-amide] stands 12 to 2300 nM. Still for that read-out and setting: under `Cn1c(=O)c(-c2ccccc2Cl)cc2cnc(NC3C4CN(C(=O)Nc5ccc(F)cc5)CC43)nc21` (stereo not drawn) [Compound No. 2, 6-[6-(2-Chlorophenyl)-8-methyl-7-oxo-7,8-dihydro-pyrido[2,3-d]pyrimidin-2-ylamino]-3-aza-bicyclo[3.1.0]hexane-3-carboxylic acid-(4-fluorophenyl)-amide] stands 12 to 2300 nM; under `CC(=O)N1CC2C(C1)C2Nc1ncc2cc(-c3ccccc3Cl)c(=O)n(C3CC3)c2n1` (stereo not drawn) [Compound No. 23, 2-(3-Acetyl-3-aza-bicyclo[3.1.0]hex-6-ylamino)-6-(2-chlorophenyl)-8-cyclopropyl-8H-pyrido[2,3-d]pyrimidin-7-one], 12 to 2300 nM. Same read-out and setting: under `O=c1c(-c2ccccc2Cl)cc2cnc(NC3C4CNCC43)nc2n1C1CC1` (stereo not drawn) [Compound No. 19, 2-(3-Aza-bicyclo[3.1.0]hex-6-ylamino)-6-(2-chlorophenyl)-8-cyclopropyl-8H-pyrido[2,3-d]pyrimidin-7-one] stands 12 to 2300 nM.

For `CC(C)(C)CC(C)(C)NC(=O)N1CC2C(C1)C2Nc1ncc2cc(-c3ccccc3Cl)c(=O)n(C3CC3)c2n1` (stereo not drawn) [Compound No. 24], the IC50 was 12 to 2300 nM. Same read-out and setting: under `O=C(Nc1ccc(F)cc1)N1CC2C(C1)C2Nc1ncc2cc(-c3ccccc3Cl)c(=O)n(C3CC3)c2n1` (stereo not drawn) [Compound No. 26, 6-[6-(2-Chlorophenyl)-8-cyclopropyl-7-oxo-7,8-dihydro-pyrido[2,3-d]pyrimidin-2-ylamino]-3-aza-bicyclo[3.1.0]hexane-3-carboxylic acid-(4-fluorophenyl)-amide] stands 12 to 2300 nM; under `Cn1c(=O)c(-c2ccccc2Cl)cc2cnc(NC3C4CN(S(C)(=O)=O)CC43)nc21` (stereo not drawn) [Compound No. 4, 6-(2-Chlorophenyl)-2-(3-methanesulphonyl-3-aza-bicyclo[3.1.0]hex-6-ylamino)-8-methyl-8H-pyrido[2,3-d]pyrimidin-7-one], 12 to 2300 nM.

`N#CCn1c(=O)c(-c2ccccc2Cl)cc2cnc(NC3C4CN(Cc5ccccc5)CC43)nc21` (stereo not drawn) [Compound No. 56, [2-(3-Benzyl-3-aza-bicycyclo[3.1.0]hex-6-ylamino)-6-(2-chlorophenyl)-7-oxo-7H-pyrido[2,3-d]pyrimidin-8-yl]-acetonitrile] gave an IC50 of 12 to 2300 nM. Same read-out and setting: under `O=c1c(-c2ccccc2Cl)cc2cnc(NCC3C4CN(Cc5ccccc5)CC34)nc2n1-c1ccc(F)cc1` (stereo not drawn) [Compound No. 16, 2-[(3-Benzyl-3-aza-bicyclo[3.1.0]hex-6-ylmethyl)-amino]-6-(2-chlorophenyl)-8-(4-fluorophenyl)-8H-pyrido[2,3-d]pyrimidin-7-one] stands 12 to 2300 nM. Same read-out and setting: under `NC(=O)N1CC2C(C1)C2Nc1ncc2cc(-c3ccccc3Cl)c(=O)n(C3CC3)c2n1` (stereo not drawn) [Compound No. 63, 6-[6-(2-Chlorophenyl)-8-cyclopropyl-7-oxo-7,8-dihydro-pyrido[2,3-d]pyrimidin-2-ylamino]-3-aza-bicyclo[3.1.0]hexane-3-carboxylic acid amide] stands 12 to 2300 nM; under `Cn1c(=O)c(-c2ccccc2Cl)cc2cnc(NC3C4CN(C(=O)OCc5ccccc5)CC43)nc21` (stereo not drawn) [Compound No. 6, 6-[6-(2-Chlorophenyl)-8-methyl-7-oxo-7,8-dihydro-pyrido[2,3-d]pyrimidin-2-ylamino]-3-aza-bicyclo[3.1.0]hexane-3-carboxylic acid benzyl ester], 12 to 2300 nM. In turn, `O=C(OCc1ccccc1)N1CC2C(C1)C2Nc1ncc2cc(-c3ccccc3Cl)c(=O)n(C3CC3)c2n1` (stereo not drawn) [Compound No. 18, 6-[6-(2-Chlorophenyl)-8-cyclopropyl-7-oxo-7,8-dihydro-pyrido[2,3-d]pyrimidin-2-ylamino]-3-aza-bicyclo[3.1.0]hexane-3-carboxylic acid benzyl ester] displayed a half-inhibitory concentration (IC50) of 12 to 2300 nM. Still for that read-out and setting: under `O=c1[nH]c2nc(NC3C4CN(Cc5ccccc5)CC43)ncc2cc1-c1ccccc1Cl` (stereo not drawn) [Compound No. 27, 2-(3-Benzyl-3-aza-bicyclo[3.1.0]hex-6-ylamino)-6-(2-chlorophenyl)-8H-pyrido[2,3-d]pyrimidin-7-one] stands 12 to 2300 nM; under `CN1CC2C(C1)C2Nc1ncc2cc(-c3ccccc3Cl)c(=O)n(C3CC3)c2n1` (stereo not drawn) [Compound No. 20, 6-(2-Chlorophenyl)-8-cyclopropyl-2-(3-methyl-3-aza-bicyclo[3.1.0]hex-6-ylamino)-8H-pyrido[2,3-d]pyrimidin-7-one], 12 to 2300 nM; under `O=c1[nH]c2nc(NC3C4CNCC43)ncc2cc1-c1ccccc1Cl` (stereo not drawn) [Compound No. 58, 2-(3-Aza-bicyclo[3.1.0]hex-6-ylamino)-6-(2-chlorophenyl)-8H-pyrido[2,3-d]pyrimidin-7-one], 12 to 2300 nM.

System in a further series: not given
Test: not given
Conditions: not given
The term melting point denotes the temperature of the solid-liquid transition. For `CCOC(=O)N1CC2C(C1)C2Nc1ncc2cc(-c3ccccc3Cl)c(=O)n(C)c2n1` (stereo not drawn) [Compound No. 68, 6-[6-(2-Chlorophenyl)-8-methyl-7-oxo-7,8-dihydro-pyrido[2,-d]pyrimidin-2-ylamino]-3-aza-bicyclo[3.1.0]hexane-3-carboxylic acid ethyl ester], the melting point lay in the range of 118.7 to 125.2 °C. Still for that read-out and setting: under `O=c1c(-c2ccccc2Cl)cc2cnc(NC3C4COCC3CN(Cc3ccccc3)C4)nc2n1-c1ccc(F)cc1` (stereo not drawn) [Compound No. 52, 2-(7-Benzyl-3-oxa-7-aza-bicyclo[3.3.1]non-9-ylamino)-6-(2-chlorophenyl)-8-(4-fluorophenyl)-8H-pyrido[2,3-d]pyrimidin-7-one] stands 107.4 to 110.4 °C; under `Cn1c(=O)c(-c2ccccc2Cl)cc2cnc(NC3CC4CCC(C3)N4Cc3ccccc3)nc21` (stereo not drawn), 147.4 to 153.8 °C.

Values taken from US20090131430A1, “PYRIDO'2,3-DIPYRIMIDINES AS ANTI-INFLAMMATORY AGENTS” (priority 2004, published 2009).
